One test has as its system porcine neuronal tubulin. The experiment in a line: Tubulin Polymerization Assay. Format: biochemical. Conditions: porcine tubulin 2.0 mg/ml, 37° C., fluorescence; read-out: IC50 (tubulin polymerization, from Vmax). An excerpt:
Tubulin Polymerization Assay
The Tubulin Polymerization Assay uses porcine neuronal tubulin and measurements are based on fluorescence enhancement due to the incorporation of a fluorescent reporter into microtubules as polymerization occurs. The assay generates a polymerization curve representing the three phases of microtubule formation (nucleation, growth and equilibrium). IC50 values for tested compounds can be generated from the observed polymerization curves.
Procedure: All compounds dilutions (in DMSO) were prepared prior to the following steps. A Molecular Devices M2 plate reader was set to 37° C. Once the internal temperature of the plate reader reached 37° C. a 96 well plate (Corning Costar, at. #3686) was placed in the fluorimeter and allowed to warm to 37° C. for 30 minutes. A total of 10 mg of porcine tubulin was resuspended in […] of Polymerization Buffer [Buffer 1 (80 mM PIPES pH 6.9, 2.0 mM MgCl2, 0.5 mM EGTA, 1.0 mM GTP and 10 μM fluorescent reporter) supplemented with 20% glycerol] to generate a 2.0 mg/ml tubulin stock and this was kept on ice. The 50× compound stocks in 100% DMSO were spotted 1 μl/well in duplicate into the wells of the 96-well plate at 37° C. and allowed to re-warm for 5 minutes at 37° C. During this incubation the 2.0 mg/ml tubulin stock was placed in a disposable plastic trough and allowed to warm briefly at room temperature. To initiate the reaction, 50 μl/well of 2.0 mg/ml tubulin in Polymerization Buffer was added to each well using a multi-channel pipettor and the fluorescence measurements were started immediately.
The maximal velocity (Vmax) of tubulin polymerization was determined using linear regression of the averaged fluorescence data at each time point using GraphPad Prism 5.0 software. The Vmax determinations for each compound at each concentration were then normalized to reactions that contained DMSO (2% final concentration) but no test compounds. This converted the data to % Activity, which refers to the percent of the Vmax of an uninhibited reaction. The concentration response curves were then plotted as the % Activity versus the Log 10 of the compound concentration in micromolar and fit by non-linear regression to a 4-parameter sigmoidal dose-response equation using GraphPad Prism 5.0 software to determine the IC50 for each compound.

The test system of another test is A2780 cells. The test is described as follows: Cell Viability Assay (ATPlite 1step), A2780. Format: cell-based. The note with it: Homo sapiens, 72 hours; for percent inhibition of cell viability at 4 µM: A2780, 4 uM compound, read-out: Cell Viability % inhibition A2780 (4 uM Cpd); for percent inhibition of cell viability at 20 µM: A2780, 20 uM compound, read-out: Cell Viability % inhibition A2780 (20 uM Cpd). The method in brief:
(§1)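 Cells seeded at 1000/well, grown 24 h at 37 °C/5% CO2, then exposed to compounds (DMSO stock diluted in media) for 72 h; viability read by ATPlite 1step luminescence. A2780 and PC3 in RPMI, MCF-7 in K-12F, each with 10% FBS.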
For orientation: ATP-based viability assays read luminescence as a measure of living cells.

The test system of the next test is MCF-7 cells. The experiment in a line: Cell Viability Assay (ATPlite 1step), MCF-7. Conditions: Homo sapiens, MCF7, 72 hours; for percent inhibition of cell viability at 4 µM: MCF-7, 4 uM compound, read-out: Cell Viability % inhibition MCF-7 (4 uM Cpd); for percent inhibition of cell viability at 20 µM: MCF-7, 20 uM compound, read-out: Cell Viability % inhibition MCF-7 (20 uM Cpd). Format: cell-based. In a few lines:
as §1

The test system of a further test is PC3 cells. The test is described as follows: Cell Viability Assay (ATPlite 1step), PC3. Conditions: Homo sapiens, PC-3, 72 hours; for percent inhibition of cell viability at 4 µM: PC3, 4 uM compound, read-out: Cell Viability % inhibition PC3 (4 uM Cpd); for percent inhibition of cell viability at 20 µM: PC3, 20 uM compound, read-out: Cell Viability % inhibition PC3 (20 uM Cpd). Format: cell-based. In a few lines:
as §1

What is called IC50 is the concentration at which inhibition is half-maximal. For the molecule `O=C(Nc1ccc(-c2cccc(Cl)c2)cn1)c1cncnc1` [Compound 3, N-[5-(3-chlorophenyl)pyridin-2-yl]pyrimidine-5-carboxamide], in the test with porcine neuronal tubulin, the IC50 turned out to be 1450 nM. Further, the percent inhibition of cell viability at 4 µM in the test on A2780 cells worked out at 84.8%; in the test with MCF-7 cells it was 50.6%; in the test with PC3 cells, 60.9%. For the same molecule, the percent inhibition of cell viability at 20 µM in the test on A2780 cells stood at 90.2%; in the test on MCF-7 cells it was 56.8%; in the test on PC3 cells, 68.3%.
Take `Cc1ncc(C(=O)Nc2ncc(-c3cccc(S(=O)(=O)C4CC4)c3)cc2F)cn1` [Compound 70, N-{5-[3-(cyclopropylsulfonyl)phenyl]-3-fluoropyridin-2-yl}-2-methylpyrimidine-5-carboxamide]: the IC50 in the test with porcine neuronal tubulin stood at 10 nM. The percent inhibition of cell viability at 4 µM was found to be 86.3% in the test with A2780 cells, 61.1% with MCF-7 cells and 58.4% in the test on PC3 cells. Besides, the percent inhibition of cell viability at 20 µM in the test on A2780 cells stood at 87.8%; in the test with MCF-7 cells, 66.1%; in the test on PC3 cells, 65%.

The record behind these values is patent publication US12383533B2 (Frost Biologic, Inc., priority 2014, dated 2025).
